Assays:
TLR7 [1] = experiment: Cytokine induction in BMDM from wild type and TLR7 deficient mice; type: cell-based, mouse; settings: BMDM from TLR7 deficient mice
Protocol: (§1) In vitro measurements of cytokine induction were performed using the mouse leukemic monocyte macrophage cell line, RAW264.7. […] BMDM were prepared from C57BL/6 and TLR7 deficient mice as described in Wu, C. C et al., (2007) “Immunotherapeutic activity of a conjugate of a Toll-like receptor 7 ligand”, Proc Natl Acad Sci USA 104, 3990-5.
(§2) In general, RAW264.7 cells or BMDM were incubated with various concentrations of conjugates for 18 hours at 37° C., 5% CO2 and culture supernatants were collected. The levels of cytokines (IL-6, IL-12 or TNF-α in the supernatants were determined by ELISA (BD Biosciences Pharmingen, La Jolla, Calif.) (Cho, H. J et al., “Immunostimulatory DNA-based vaccines induce cytotoxic lymphocyte activity by a T-helper cell-independent mechanism” [see comments], Nat Biotechnol 18, 509-14 (2000)), and the results presented in FIG. 2A-D. Data are mean±SEM of triplicates and are representative of three independent experiments. Minimum detection levels of these cytokines were 15 pg/mL.

TLR7 [2] = molecular target: T1, TLR7 (Mus musculus, UniProt P58681); experiment: as above; type: cell-based; set-up: endogenous in cells; host or cells: primary BMDM from C57BL/6 mice; settings: wild type BMDM
T1 sequence (P58681 27-1050): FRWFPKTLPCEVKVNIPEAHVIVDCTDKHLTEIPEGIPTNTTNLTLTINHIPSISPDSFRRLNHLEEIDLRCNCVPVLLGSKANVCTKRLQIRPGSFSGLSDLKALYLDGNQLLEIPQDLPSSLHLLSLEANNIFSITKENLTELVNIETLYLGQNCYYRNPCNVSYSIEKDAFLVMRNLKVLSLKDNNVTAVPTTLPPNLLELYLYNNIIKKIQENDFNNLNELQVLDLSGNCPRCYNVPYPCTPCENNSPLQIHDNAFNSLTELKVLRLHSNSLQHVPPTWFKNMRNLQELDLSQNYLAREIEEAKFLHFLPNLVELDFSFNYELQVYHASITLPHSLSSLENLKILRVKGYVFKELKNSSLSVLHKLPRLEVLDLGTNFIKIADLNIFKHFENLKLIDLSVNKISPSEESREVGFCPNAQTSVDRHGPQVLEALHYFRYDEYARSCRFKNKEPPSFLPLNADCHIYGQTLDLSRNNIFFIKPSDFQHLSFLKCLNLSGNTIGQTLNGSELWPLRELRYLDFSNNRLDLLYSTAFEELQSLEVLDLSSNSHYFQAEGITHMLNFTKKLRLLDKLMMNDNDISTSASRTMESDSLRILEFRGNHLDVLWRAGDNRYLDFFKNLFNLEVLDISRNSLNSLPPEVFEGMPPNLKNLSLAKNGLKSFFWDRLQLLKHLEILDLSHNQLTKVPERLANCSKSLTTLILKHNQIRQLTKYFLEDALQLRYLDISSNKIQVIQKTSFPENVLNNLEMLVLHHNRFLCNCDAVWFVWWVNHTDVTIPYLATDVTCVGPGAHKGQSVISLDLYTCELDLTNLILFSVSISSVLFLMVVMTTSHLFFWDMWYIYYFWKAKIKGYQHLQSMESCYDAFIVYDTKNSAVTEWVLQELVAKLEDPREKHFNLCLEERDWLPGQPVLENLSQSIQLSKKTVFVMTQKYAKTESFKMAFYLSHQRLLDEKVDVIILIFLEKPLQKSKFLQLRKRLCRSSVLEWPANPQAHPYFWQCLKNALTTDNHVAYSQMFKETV
Protocol: as §1, §2

TLR7 [3] = molecular target: T1, TLR7; experiment: In vitro cytokine induction in murine macrophages (RAW264.7, BMDM), ELISA; type: cell-based; set-up: endogenous in cells; host or cells: RAW264.7 (ATCC); primary BMDM from C57BL/6 mice; settings: for potency compared to the unconjugated TLR7 (SM): ELISA; for potency of cytokine induction in comparison to the unmodified TLR7 agonist: in vitro and in vivo
Protocol: as §1, §2
TNFα levels were measured (see FIG. 2A) by incubating approximately 1×10^6/mL RAW 264.7 cells with the various conjugates or controls, as described above. IL-6 and IL12 levels were measured (see FIG. 2B-D) by incubating 0.5×10^6/mL BMDM with the various conjugates or controls, as described above.
Using a similar assay, the in vitro potency of the lipid-TLR agonist conjugates (FIG. 1, compound 6), PEG-TLR7 agonist conjugates (FIG. 1, compound 8), and PEG-lipid (FIG. 1, compound 9) conjugates were compared using a murine macrophage cell line, RAW264, and primary bone marrow derived macrophages (BMDM). The respective cells were stimulated for 18 hours with serially diluted TLR7 conjugates and the levels of cytokines released in the media were measured by ELISA and compared to the unconjugated TLR7 agonist (SM) (see FIG. 2A, panels A-D).

Structure (SMILES) | IL-12 and IL-6 induction (TLR7 [1]) | agonist activity (IL-12, IL-6) (TLR7 [2]) | potency as a cytokine inducer compared to the unconjugated agonist (TLR7 [3]; normalized to the molar level of the unconjugated agonist, RAW264, BMDM, 18 hours) [fold] | potency compared to the unconjugated TLR7 (SM) (TLR7 [3]; RAW264, BMDM, 18 hours) | potency of cytokine induction in comparison to the unmodified TLR7 agonist (TLR7 [3])
CCCCCCCC/C=C\CCCCCCCC(=O)OCC(COP(=O)(O)OCCNC(=O)c1ccc(Cn2c(=O)[nH]c3c(N)nc(OCCOC)nc32)cc1)OC(=O)CCCCCCC/C=C\CCCCCCCC (centres unmarked) [Compound 6, 2-(4-((6-amino-2-(2-methoxyethoxy)-8-oxo-7H-purin-9(8H)-yl)methyl)benzamido)ethyl 2,3-bis(oleoyloxy)propyl phosphate] | little or no IL-12 and IL-6 | active | 10 | – | –
COCCOc1nc(N)c2nc(O)n(Cc3ccc(C(=O)NCCOCCOCCOCCOCCOCCOCCOCCOCCOCCOCCn4cc(CCC(=O)O)nn4)cc3)c2n1 [Compound 8, 3-(1-(1-(4-((6-amino-8-hydroxy-2-(2-methoxyethoxy)-9H-purin-9-yl)methyl)phenyl)-1-oxo-5,8,11,14,17,20,23,26,29,32-decaoxa-2-azatetratriacontan-34-yl)-1H-1,2,3-triazol-4-yl)propanoic acid] | little or no IL-12 and IL-6 | active | – | less potency | attenuated
CCCCCCCC/C=C\CCCCCCCC(=O)OCC(COP(=O)(O)OCCNC(=O)CCc1cn(CCOCCOCCOCCOCCOCCOCCOCCOCCOCCOCCNC(=O)c2ccc(Cn3c(O)nc4c(N)nc(OCCOC)nc43)cc2)nn1)OC(=O)CCCCCCC/C=C\CCCCCCCC (centres unmarked) [Compound 9, 2-(3-(1-(1-(4-((6-amino-8-hydroxy-2-(2-methoxyethoxy)-9H-purin-9-yl)methyl)phenyl)-1-oxo-5,8,11,14,17,20,23,26,29,32-decaoxa-2-azatetratriacontan-34-yl)-1H-1,2,3-triazole-4-yl)propanamido)ethyl 2,3-bis(oleoyloxy)propyl phosphate] | little or no IL-12 and IL-6 | active | – | restored their potency to the similar level of the unconjugated TLR7 (SM) | restored

— patent US8729088B2, “Toll-like receptor modulators and treatment of diseases” (The Regents of the University of California, priority 2009, dated 2014)
